Source: PubChem BioAssay AID2060487 (Molecular Pharmacology Branch, DTP, NCI, 2025)

System: 997537-175-T-J1-PDC complex spheroid viability
Experiment: Anticancer human tumor 997537-175-T-J1-PDC patient-derived colon adenocarcinoma cell line growth inhibition [GQUAD]
Settings: for IC50: curve of first compound; for viability, T/C: stronger effect = lower value
Summary of the method: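 Tumor cells were grown as complex spheroids with HUVEC endothelial cells and mesenchymal stem cells as stroma. G-quadruplex stabilizers were combined with targeted agents over half-log dilutions from near the clinical Cmax, or from 10 microM.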

[1] = second compound 0.0316 µM, first compound 0.0316 µM
[2] = second compound 0.0316 µM, first compound 0.316 µM
[3] = second compound 0.1 µM, first compound 0.0316 µM
[4] = second compound 0.1 µM, first compound 0.316 µM
[5] = second compound 0.316 µM, first compound 0.0316 µM
[6] = second compound 0.316 µM, first compound 0.316 µM
[7] = second compound 1 µM, first compound 0.0316 µM
[8] = second compound 1 µM, first compound 0.316 µM
[9] = second compound 3.16 µM, first compound 0.0316 µM
[10] = second compound 3.16 µM, first compound 0.316 µM
[11] = second compound 10 µM, first compound 0.0316 µM
[12] = second compound 10 µM, first compound 0.316 µM
[13] = second compound 0.0316 µM, first compound 0.1 µM
[14] = second compound 0.0316 µM, first compound 1 µM
[15] = second compound 0.0316 µM, first compound 3.16 µM
[16] = second compound 0.0316 µM, first compound 10 µM
[17] = second compound 0.1 µM, first compound 0.1 µM
[18] = second compound 0.1 µM, first compound 1 µM
[19] = second compound 0.1 µM, first compound 3.16 µM
[20] = second compound 0.1 µM, first compound 10 µM
[21] = second compound 0.316 µM, first compound 0.1 µM
[22] = second compound 0.316 µM, first compound 1 µM
[23] = second compound 0.316 µM, first compound 3.16 µM
[24] = second compound 0.316 µM, first compound 10 µM
[25] = second compound 1 µM, first compound 0.1 µM
[26] = second compound 1 µM, first compound 1 µM
[27] = second compound 1 µM, first compound 3.16 µM
[28] = second compound 1 µM, first compound 10 µM
[29] = second compound 3.16 µM, first compound 0.1 µM
[30] = second compound 3.16 µM, first compound 1 µM
[31] = second compound 3.16 µM, first compound 3.16 µM
[32] = second compound 3.16 µM, first compound 10 µM
[33] = second compound 10 µM, first compound 0.1 µM
[34] = second compound 10 µM, first compound 1 µM
[35] = second compound 10 µM, first compound 3.16 µM
[36] = second compound 10 µM, first compound 10 µM
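Further: spheroids exposed to the agents for 7 days.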
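Wherever viability, T/C is given: 100% = DMSO vehicle control viability.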

SMILES: Cc1[nH]c2ccccc2c1CCNCc1ccc(/C=C/C(=O)NO)cc1 + Cc1[nH]c2ccc(F)cc2c1-c1nc2c3cccnc3c3ncccc3c2[nH]1
- IC50 (second compound 0.0316 µM): > 0.316 µM
- IC50 (second compound 0.1 µM): > 0.316 µM
- IC50 (second compound 0.316 µM): > 0.316 µM
- IC50 (second compound 1 µM): > 0.316 µM
- IC50 (second compound 3.16 µM): > 0.316 µM
- IC50 (second compound 10 µM): > 0.316 µM
- viability, T/C (second compound 0.0316 µM, first compound 0.000999 µM): 100%
- viability, T/C (second compound 0.0316 µM, first compound 0.00316 µM): 103%
- viability, T/C (second compound 0.0316 µM, first compound 0.00999 µM): 100%
- viability, T/C [1]: 106%
- viability, T/C (second compound 0.0316 µM, first compound 0.0999 µM): 88.8%
- viability, T/C [2]: 93.2%
- viability, T/C (second compound 0.1 µM, first compound 0.000999 µM): 89.3%
- viability, T/C (second compound 0.1 µM, first compound 0.00316 µM): 108%
- viability, T/C (second compound 0.1 µM, first compound 0.00999 µM): 92.8%
- viability, T/C [3]: 104%
- viability, T/C (second compound 0.1 µM, first compound 0.0999 µM): 93.4%
- viability, T/C [4]: 95.5%
- viability, T/C (second compound 0.316 µM, first compound 0.000999 µM): 92.1%
- viability, T/C (second compound 0.316 µM, first compound 0.00316 µM): 111%
- viability, T/C (second compound 0.316 µM, first compound 0.00999 µM): 92.4%
- viability, T/C [5]: 91%
- viability, T/C (second compound 0.316 µM, first compound 0.0999 µM): 105%
- viability, T/C [6]: 97.1%
- viability, T/C (second compound 1 µM, first compound 0.000999 µM): 98.4%
- viability, T/C (second compound 1 µM, first compound 0.00316 µM): 95.1%
- viability, T/C (second compound 1 µM, first compound 0.00999 µM): 101%
- viability, T/C [7]: 90.6%
- viability, T/C (second compound 1 µM, first compound 0.0999 µM): 90.5%
- viability, T/C [8]: 84.8%
- viability, T/C (second compound 3.16 µM, first compound 0.000999 µM): 93.2%
- viability, T/C (second compound 3.16 µM, first compound 0.00316 µM): 84%
- viability, T/C (second compound 3.16 µM, first compound 0.00999 µM): 82.1%
- viability, T/C [9]: 96.3%
- viability, T/C (second compound 3.16 µM, first compound 0.0999 µM): 77.6%
- viability, T/C [10]: 80.7%
- viability, T/C (second compound 10 µM, first compound 0.000999 µM): 83.2%
- viability, T/C (second compound 10 µM, first compound 0.00316 µM): 88.7%
- viability, T/C (second compound 10 µM, first compound 0.00999 µM): 73.2%
- viability, T/C [11]: 78.6%
- viability, T/C (second compound 10 µM, first compound 0.0999 µM): 84.6%
- viability, T/C [12]: 69.5%

SMILES: CC1COCCN1c1cc(C2(S(C)(=N)=O)CC2)nc(-c2ccnc3[nH]ccc23)n1 (stereo not drawn) + CN(C)c1ccc(Nc2c3ccc(NC(=O)CCN4CCCC4)cc3nc3cc(NC(=O)CCN4CCCC4)ccc23)cc1
- IC50 (second compound 0.0316 µM): 8.42 µM
- IC50 (second compound 0.1 µM): > 10 µM
- IC50 (second compound 0.316 µM): > 10 µM
- IC50 (second compound 1 µM): > 10 µM
- IC50 (second compound 3.16 µM): > 10 µM
- IC50 (second compound 10 µM): > 10 µM
- viability, T/C [1]: 93.6%
- viability, T/C [13]: 82.9%
- viability, T/C [2]: 74.4%
- viability, T/C [14]: 84.5%
- viability, T/C [15]: 56%
- viability, T/C [16]: 49%
- viability, T/C [3]: 82.3%
- viability, T/C [17]: 80%
- viability, T/C [4]: 75.1%
- viability, T/C [18]: 59.5%
- viability, T/C [19]: 48.6%
- viability, T/C [20]: 81.9%
- viability, T/C [5]: 98.7%
- viability, T/C [21]: 66.3%
- viability, T/C [6]: 79.2%
- viability, T/C [22]: 76%
- viability, T/C [23]: 65%
- viability, T/C [24]: 76%
- viability, T/C [7]: 90%
- viability, T/C [25]: 67.4%
- viability, T/C [8]: 87.8%
- viability, T/C [26]: 75.8%
- viability, T/C [27]: 70.9%
- viability, T/C [28]: 70.5%
- viability, T/C [9]: 70.2%
- viability, T/C [29]: 93%
- viability, T/C [10]: 86.7%
- viability, T/C [30]: 82.8%
- viability, T/C [31]: 73.4%
- viability, T/C [32]: 70.6%
- viability, T/C [11]: 77%
- viability, T/C [33]: 95.7%
- viability, T/C [12]: 94.5%
- viability, T/C [34]: 88.9%
- viability, T/C [35]: 55.5%
- viability, T/C [36]: 77%

SMILES: O=c1[nH]cc(F)c(=O)[nH]1 + Cc1[nH]c2ccc(F)cc2c1-c1nc2c3cccnc3c3ncccc3c2[nH]1
- IC50 (second compound 0.0316 µM): > 10 µM
- IC50 (second compound 0.1 µM): > 10 µM
- IC50 (second compound 0.316 µM): > 10 µM
- IC50 (second compound 1 µM): > 10 µM
- IC50 (second compound 3.16 µM): > 10 µM
- IC50 (second compound 10 µM): > 10 µM
- viability, T/C [1]: 95.6%
- viability, T/C [13]: 88.1%
- viability, T/C [2]: 109%
- viability, T/C [14]: 91.7%
- viability, T/C [15]: 80.3%
- viability, T/C [16]: 89.5%
- viability, T/C [3]: 87.4%
- viability, T/C [17]: 87.7%
- viability, T/C [4]: 84.6%
- viability, T/C [18]: 83.5%
- viability, T/C [19]: 98.3%
- viability, T/C [20]: 101%
- viability, T/C [5]: 94.2%
- viability, T/C [21]: 76.8%
- viability, T/C [6]: 78.5%
- viability, T/C [22]: 107%
- viability, T/C [23]: 114%
- viability, T/C [24]: 109%
- viability, T/C [7]: 79.2%
- viability, T/C [25]: 94%
- viability, T/C [8]: 85.4%
- viability, T/C [26]: 87.2%
- viability, T/C [27]: 108%
- viability, T/C [28]: 86.7%
- viability, T/C [9]: 87.2%
- viability, T/C [29]: 83%
- viability, T/C [10]: 94.1%
- viability, T/C [30]: 95.8%
- viability, T/C [31]: 94%
- viability, T/C [32]: 76.1%
- viability, T/C [11]: 70.2%
- viability, T/C [33]: 76.2%
- viability, T/C [12]: 88.6%
- viability, T/C [34]: 57%
- viability, T/C [35]: 61.4%
- viability, T/C [36]: 61.4%

SMILES: CC1COCCN1c1cc(C2(O)CC3CCC(C2)O3)c2cnn(-c3ccn[nH]3)c2n1 (stereo not drawn) + Cc1cnc(CNC(=O)c2c(=O)c3ccc(N4CCCN(C)CC4)nc3n3c2sc2ccccc23)cn1
- IC50 (second compound 0.0316 µM): 0.0848 µM
- IC50 (second compound 0.1 µM): < 0.0316 µM
- IC50 (second compound 0.316 µM): 0.081 µM
- IC50 (second compound 1 µM): < 0.0316 µM
- IC50 (second compound 3.16 µM): > 10 µM
- IC50 (second compound 10 µM): 3.61 µM
- viability, T/C [1]: 64%
- viability, T/C [13]: 52.9%
- viability, T/C [2]: 33.3%
- viability, T/C [14]: 38.8%
- viability, T/C [15]: 42.9%
- viability, T/C [16]: 44.8%
- viability, T/C [3]: 51.1%
- viability, T/C [17]: 49%
- viability, T/C [4]: 37.5%
- viability, T/C [18]: 27.6%
- viability, T/C [19]: 41.2%
- viability, T/C [20]: 58.5%
- viability, T/C [5]: 53%
- viability, T/C [21]: 52.3%
- viability, T/C [6]: 35.7%
- viability, T/C [22]: 57.1%
- viability, T/C [23]: 43%
- viability, T/C [24]: 43.4%
- viability, T/C [7]: 47.9%
- viability, T/C [25]: 42.6%
- viability, T/C [8]: 38.4%
- viability, T/C [26]: 42.9%
- viability, T/C [27]: 62.7%
- viability, T/C [28]: 28.6%
- viability, T/C [9]: 48.6%
- viability, T/C [29]: 56.9%
- viability, T/C [10]: 62.7%
- viability, T/C [30]: 41.8%
- viability, T/C [31]: 54.2%
- viability, T/C [32]: 53%
- viability, T/C [11]: 59.5%
- viability, T/C [33]: 63.1%
- viability, T/C [12]: 55.8%
- viability, T/C [34]: 53.9%
- viability, T/C [35]: 53.1%
- viability, T/C [36]: 42.4%
